Article PMC7066893 (Aging (Albany NY), 2020)

Biological target: T1, P-glycoprotein (P-gp) (Homo sapiens, UniProt P08183)
T1 construct: gene ABCB1
Assay: Pgp-Glo luminescent P-gp ATPase assay; inhibition of paclitaxel-stimulated ATPase at […]
Assay type: biochemical

T1 sequence (P08183 whole entry): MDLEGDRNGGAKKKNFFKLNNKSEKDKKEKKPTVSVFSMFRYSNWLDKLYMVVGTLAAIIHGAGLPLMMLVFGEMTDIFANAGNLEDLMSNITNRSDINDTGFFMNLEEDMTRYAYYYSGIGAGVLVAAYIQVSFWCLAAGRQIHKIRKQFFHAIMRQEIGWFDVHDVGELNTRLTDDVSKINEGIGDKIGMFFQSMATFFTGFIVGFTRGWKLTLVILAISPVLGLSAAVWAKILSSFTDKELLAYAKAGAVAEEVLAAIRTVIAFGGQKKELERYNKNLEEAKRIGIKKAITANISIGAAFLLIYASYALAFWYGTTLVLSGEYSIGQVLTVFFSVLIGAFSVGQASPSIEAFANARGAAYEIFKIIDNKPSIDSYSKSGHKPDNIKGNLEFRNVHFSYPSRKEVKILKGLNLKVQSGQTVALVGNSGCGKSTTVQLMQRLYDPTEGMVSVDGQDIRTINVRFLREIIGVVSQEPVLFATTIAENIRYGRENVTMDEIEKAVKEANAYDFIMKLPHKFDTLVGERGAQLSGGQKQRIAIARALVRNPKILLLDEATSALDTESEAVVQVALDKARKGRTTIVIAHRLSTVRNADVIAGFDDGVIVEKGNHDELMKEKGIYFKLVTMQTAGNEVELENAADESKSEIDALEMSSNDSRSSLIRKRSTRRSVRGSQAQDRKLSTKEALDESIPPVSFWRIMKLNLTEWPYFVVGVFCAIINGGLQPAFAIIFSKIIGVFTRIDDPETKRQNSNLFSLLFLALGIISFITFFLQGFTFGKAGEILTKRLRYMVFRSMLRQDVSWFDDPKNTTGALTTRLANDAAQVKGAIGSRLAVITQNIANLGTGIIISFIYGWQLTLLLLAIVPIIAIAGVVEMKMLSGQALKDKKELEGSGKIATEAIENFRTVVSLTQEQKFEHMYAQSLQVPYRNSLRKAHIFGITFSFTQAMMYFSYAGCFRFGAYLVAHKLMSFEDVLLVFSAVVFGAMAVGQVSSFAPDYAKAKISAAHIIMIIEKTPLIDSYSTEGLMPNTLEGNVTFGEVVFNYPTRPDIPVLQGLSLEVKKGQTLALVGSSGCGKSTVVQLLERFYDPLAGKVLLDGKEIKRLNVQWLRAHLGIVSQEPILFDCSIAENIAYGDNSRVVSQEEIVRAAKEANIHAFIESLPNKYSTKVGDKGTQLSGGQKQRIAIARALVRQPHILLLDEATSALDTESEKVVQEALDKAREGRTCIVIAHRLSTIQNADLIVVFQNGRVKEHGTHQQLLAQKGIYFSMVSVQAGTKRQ

C/C1=C\[C@@H]2[C@H](CC[C@@]3(C)O[C@@H]3[C@H]3[C@@H](O)[C@@H](C)C[C@]3(OC(=O)/C=C/c3ccccc3)C1=O)C2(C)C [EM-E-11-4]
Pgp-Glo luminescent P-gp ATPase assay; inhibition of paclitaxel-stimulated ATPas: These results suggest that EM-E-11-4 hinders P-gp ATPase activity
